According to patent publication US9056923B2, “Mimetic peptides derived from collagen type IV and their use for treating angiogenesis- and lymphagiogenesis-dependent diseases” (THE JOHNS HOPKINS UNIVERSITY, priority 2010, dated 2015):
Entries after “also recorded” stand apart in the source; their conditions may differ. Read-outs that look alike come from different tables or passages of the source. Square brackets hold non-standard residues; d marks the D form. Peptide text beside a SMILES is read from it. Abu = CC[C@H](N)C(=O)O

How the values were obtained:
HUVEC [1] = format: cell-based, human; details: for Activity in Proliferation: Yes/No summary
Description: Several assays were used to test the peptides discussed in the Examples herein. A colorimetric based proliferation assay using WST-1 (Roche, 11644807001) proliferation reagent was carried out using HUVEC cells. 2000 cells/well were plated in 96-well plates and allowed to adhere overnight. On the following day, the media was exchanged with fully supplemented media containing peptides or equivalent DMSO vehicle for the controls. Three days later the media containing the peptides was replaced with serum-free EBM-2 media containing WST-1 reagent and the plates were incubated for four hours as per the manufacturer's recommendations. Changes in color, due to the formazan dye resulted from the cleavage of the tetrazolium salt WST-1 by the mitochondrial succinate-tetrazolium reductase, were read on a Victor V fluorescence plate reader (Perkin Elmer, MA) by measuring the absorbance at 450 nm Dose response curves of percent live cells (in comparison to untreated cells but incubated in complete media with 0.2% DMSO) were created. Assays were performed in at least two independent replicates and each replicate was performed using three experimental triplicates.

HUVEC [2] = assay: HUVEC migration assay (RT-CIM); format: cell-based, human; details: for Migration Inhibition (50 uM): 50 uM peptide; for Activity in Migration: Yes/No summary, active = inhibitory potential greater than 30%; for inhibition of migration: concentration not given
Description: The inhibitory potential of the peptides was measured using a real time migration assay system based on electrical impedance (RT-CIM, ACEA Biosciences, CA). CIM 16 well plates (Roche, 05665817001) are composed of a top and bottom chamber separated by a microporous (8 μm) polycarbonate membrane. The membrane was coated with fibronectin (20 μg/mL), and 45,000 cells/well in serum free media with or without peptides were added to the top compartment. Media with chemoattractant (i.e., fully supplemented EBM-2) was added to the bottom compartment of the chamber and the plate was incubated at 37° C. for 20 hours. The sensors integrated on the bottom side of the membrane monitor and continuously record changes in impedance as the cells move through the membrane. The RT-CIM technology allows for easy quantification of cell migration by monitoring the cell index derived from the measured impedances. Assays were performed in at least two independent replicates and each replicate was performed using two experimental duplicates.

HUVEC [3] = format: cell-based, human; details: for Adhesion Inhibition (100 uM) / Activity in Adhesion: HUVEC; for Adhesion Inhibition (100 uM): 100 uM peptide; for Activity in Adhesion: Yes/No summary, active = inhibitory potential greater than 30%; for IC50: 3 h
Description: Similar to the migration assays, the inhibition activity of the peptide in cellular adhesion was assessed using the RT-CIM technology. In this case, 25,000 cells/well were plated in 16 wells E-plates (Roche, Basel Switzerland) in the presence or absence of the peptide. The adhesion was monitored over time (3 hours) by measuring changes in the electrical impedance, which is a direct measure of the cells adhering on the electrodes. […] Assays were performed in at least two independent replicates and each replicate was performed using two experimental duplicates.

HUVEC [4] = assay: HUVEC tube formation assay on Matrigel; format: cell-based, human; details: for Tube formation Inhibition (100 uM): 100 uM peptide; for Activity in Tube formation: Yes/No summary; for inhibition of tube formation (FIG. 20): high dose, 100 nM
Description: The compounds also were tested for their ability to inhibit tube formation, a process critical in angiogenesis. Endothelial cells spontaneously form a network of tubes when plated on extracts of extracellular matrix. This in vitro assay combines aspects of adhesion and migration and it is routinely used in angiogenesis research (Oliveira-Ferrer et al., 2008). The ability to inhibit tube formation is a comprehensive assessment of the anti-angiogenic potential. The protocol was described by Arnaoutova et al. (2009) and it consists of plating HUVEC on top of basement membrane extract and after incubation at 37° C. the cells naturally rearrange themselves in a network of tubes. Thus, 50 μL/well of Matrigel (BD Biosciences, San Jose, Calif.) was plated in a cold 96 well plate and incubated at 37° C. for 30 min for polymerization. 15,000 cells/well were added to the top of the gel and incubated in complete media in the presence or absence of peptide for 19 hours. Images were captured using the CCD Sensicam mounted on a Nikon microscope (Eclipse T-100). Assays were performed in at least two independent replicates and each replicate was performed using three experimental replicates and one image of a randomly chosen field was acquired per well.

MDA-MB-231 xenograft = assay: MDA-MB-231 orthotopic breast tumor xenograft; format: in vivo, SCID mice; details: for MDA-MB-231 xenograft inhibition: mice
Description: For primary tumor inhibition studies, 1−2×10^6 tumor cells were injected into 4-6 wk old female SCID mice. After the tumors reached a size of 100 mm^3 the animals were randomized into groups of 10 animals each. The animals were treated with vehicle, SP2012, SP2000, or SP2024. The peptides were administered subcutaneously daily. Dosing was continued for 3 or 4 weeks and tumor sizes were measured every 3 days using calipers. The tumor volume was estimated using the formula V=a^2b/2 where a and b are the smaller and larger diameters.
For the tumor xenograft assay, animals were housed and treated according to the approved animal protocol of the Institutional Care and Use Committee at Johns Hopkins Medical Institution (JHMI). Orthotopic breast tumors were initiated in SCID mice using MDA-MB-231 cells. 2×10^6 cells per 100 μL aliquot of single cell suspension were injected in the breast mannary fat pad. Tumors reached volumes of 75 mm^3 to 100 mm^3 in approximately 14-21 days. Mice were randomized and arranged in groups (8 mice per group) with similar tumor volumes (no statistical difference among averages) and treatment was commenced. Peptides were administered once per day intraperitoneally (i.p.) at doses of 10 mg/kg (subcutaneous delivery was also tested with certain peptides). Paclitaxel was administered at 5 mg/kg once a week, and to maintain the daily treatment regime PBS was administered on the non-treatment days. Tumors were measured every fourth day using calipers and the tumor volume was calculated using the formula V=ab^2/2, where a is the larger diameter and b is the smaller diameter.

[5] = system: choroidal neovascularization; assay: Laser-induced choroidal neovascularization model; format: in vivo, C57BL/6 mice; details: 0.1 μg into a mouse eye
Description: The ocular laser-induced choroidal neovascularization (NV) model of wet age-related macular degeneration was used for testing. 5-6-week-old female pathogen-free C57BL/6 mice were anesthetized with ketamine hydrochloride (100 mg/kg body weight) and pupils were dilated. Laser photocoagulation (75-μm spot size, 0.1-sec duration, 120 mW) was performed in the 9, 12, and 3 o'clock positions of the posterior pole of each eye with the slit lamp delivery system of an OcuLight GL diode laser (Iridex, Mountain View, Calif.) and a handheld cover slip as a contact lens to view the retina. Production of a tissue bubble by the laser, which indicates rupture of Bruch's membrane, is an important factor in obtaining choroidal NV; therefore, only burns in which a bubble is produced are included in the study. […] At day 7 the mice that received the naked peptides were dosed again whereas the mice that received the particles were administered PBS. Intravitreous injections were done under a dissecting microscope with a Harvard Pump Microinjection System and pulled glass micropipettes. After 14 days, the mice were perfused with 1 mL of PBS containing 50 mg/mL of fluorescein-labeled dextran (2×10^6 Daltons average molecular weight; Sigma-Aldrich, St. Louis, Mo.) and choroidal flat mounts were examined by fluorescence microscopy. Images were captured with a Nikon Digital Still Camera DXM1200 (Nikon Instruments Inc., New York, N.Y.). Image analysis software (Image-Pro Plus; Media Cybernetics, Silver Spring, Md.) was used to measure the total area of choroidal NV at each rupture site with the investigator masked with respect to treatment group.

[6] = system: VEGF mediated retinal neovascularization; assay: Rho/VEGF transgenic mice model of retinal neovascularization; format: in vivo; details: 0.1 μg into a mouse eye
Description: The ocular Rho/VEGF transgenic mice model of wet age-related macular degeneration also was used to test some of the peptides. Transgenic mice in which the rhodopsin promoter drives expression of VEGF in photoreceptors have the onset of VEGF production at P7 and develop extensive NV along the outer surface of the retina by P21 (Okamoto et al., 1997; To be et al., 1998). Mice hemizygous for the transgene (n=15 for each dose) were given an intraocular injection of 1 μl of PBS containing 0.01, 0.1, or 1 μg of peptide or scramble peptide in one eye at P7 and P14 and at P21 the mice were anesthetized, perfused with fluorescein-labeled dextran, and the total area of neovascularization on the outer surface of the retina was measured on retinal flat mounts by image analysis as above.

Row | Compound | IC50 (HUVEC [1]) | Migration Inhibition (50 uM) (HUVEC [2]) | Adhesion Inhibition (100 uM) (HUVEC [3]) | Tube formation Inhibition (100 uM) (HUVEC [4]) | suppression of tumor growth (MDA-MB-231 xenograft; MDA-MB-231 xenograft in mice, 10 mg/kg daily) | microvascular density (MDA-MB-231 xenograft; after completion of the treatment at 21 days) | MDA-MB-231 xenograft inhibition (MDA-MB-231 xenograft) | Activity in Proliferation (HUVEC [1]; HUVEC) | Activity in Migration (HUVEC [2]) | inhibition of migration (HUVEC [2]) | Activity in Adhesion (HUVEC [3]) | Activity in Tube formation (HUVEC [4]) | inhibition of tube formation (FIG. 20) (HUVEC [4]) | inhibition of proliferation (HUVEC [1]; HUVEC) | IC50 (HUVEC [1]; HUVEC, tables 5, 8-10 and text, read-out: IC50 ± 95% CI (μM), proliferation) | IC50 (HUVEC [3]) | laser-induced choroidal neovascularization [5] | area of retinal neovascularization in the Rho/VEGF model [6] | Proliferation Inhibition (IC50 in uM) (HUVEC [1]; HUVEC, summary tables 2-4, 6, 7)
1 | CC[C@H](C)[C@H](NC(=O)[C@H](CC(N)=O)NC(=O)[C@H](CS)NC(=O)[C@H](Cc1ccccc1)NC(=O)[C@H](CCSC)NC(=O)[C@H](Cc1ccccc1)NC(=O)[C@@H]1CCCN1C(=O)[C@H](CCSC)NC(=O)[C@@H](NC(=O)[C@H](CO)NC(=O)[C@H](Cc1ccccc1)NC(=O)[C@H](CCCNC(=N)N)NC(=O)[C@H](CCCNC(=N)N)NC(=O)[C@@H](N)CC(C)C)[C@@H](C)O)C(=O)N[C@@H](CC(N)=O)C(=O)N[C@@H](CC(N)=O)C(=O)N[C@H](C(=O)N[C@@H](CS)C(=O)N[C@@H](CC(N)=O)C(=O)N[C@@H](Cc1ccccc1)C(N)=O)C(C)C [SP2000, reference compound] (H-LRRFSTMPFMFCNINNVCNF-NH2; N-terminus assumed) | 15.5 µM | 80% | 95% | Complete | tumor growth was inhibited | statistically different from one another | Active |  |  |  |  |  |  |  |  |  |  |  | 
2 | CC[C@H](NC(=O)[C@H](Cc1ccccc1)NC(=O)[C@H](CCSC)NC(=O)[C@H](Cc1ccccc1)NC(=O)[C@@H]1CCCN1C(=O)[C@H](CCSC)NC(=O)[C@@H](NC(=O)[C@@H](N)CO)[C@@H](C)O)C(=O)N[C@@H](CC(N)=O)C(=O)N[C@H](C(=O)N[C@@H](CC(N)=O)C(=O)N[C@@H](CC(N)=O)C(=O)N[C@H](C(=O)N[C@@H](CC)C(=O)N[C@@H](CC(N)=O)C(=O)N[C@@H](Cc1ccccc1)C(=O)O)C(C)C)[C@@H](C)CC [SP2011, STMPFMFAbuNINNVAbuNF-OH] (H-STMPFMF[Abu]NINNV[Abu]NF-OH; N-terminus assumed) | 51.4 µM | Inactive | 0% | Partial |  |  | Active | No | No | inactive in the migration assay | Yes | No | no activity in tube formation |  |  |  |  |  | 
3 | CC[C@H](C)[C@H](NC(=O)[C@H](CC(N)=O)NC(=O)[C@@H](NC(=O)[C@H](Cc1ccccc1)NC(=O)[C@@H](C)NC(=O)[C@H](Cc1ccccc1)NC(=O)[C@@H]1CCCN1C(=O)[C@H](CCSC)NC(=O)[C@@H](NC(=O)[C@H](CO)NC(=O)[C@H](Cc1ccccc1)NC(=O)[C@H](CCCNC(=N)N)NC(=O)[C@H](CCCNC(=N)N)NC(=O)[C@@H](N)CC(C)C)[C@@H](C)O)[C@@H](C)CC)C(=O)N[C@@H](CC(N)=O)C(=O)N[C@@H](CC(N)=O)C(=O)N[C@H](C(=O)N[C@H](C(=O)N[C@@H](CC(N)=O)C(=O)N[C@@H](Cc1ccccc1)C(N)=O)[C@@H](C)CC)C(C)C [SP2034, LRRFSTMPFdAFININNVINF] |  |  |  |  |  |  |  | Yes | Yes |  | Yes | Yes |  | improved by two orders of magnitude | 0.54 ± 0.19 µM | 550 ± 370 nM | inhibited laser-induced choroidal neovascularization | inhibited | 
4 | CC[C@H](C)[C@H](NC(=O)[C@H](CC(N)=O)NC(=O)[C@@H](NC(=O)[C@H](Cc1ccccc1)NC(=O)[C@H](C)NC(=O)[C@H](Cc1ccccc1)NC(=O)[C@@H]1CCCN1C(=O)[C@H](CCSC)NC(=O)[C@@H](NC(=O)[C@H](CO)NC(=O)[C@H](Cc1ccccc1)NC(=O)[C@H](CCCNC(=N)N)NC(=O)[C@H](CCCNC(=N)N)NC(=O)[C@@H](N)CC(C)C)[C@@H](C)O)[C@@H](C)CC)C(=O)N[C@@H](CC(N)=O)C(=O)N[C@@H](CC(N)=O)C(=O)N[C@H](C(=O)N[C@H](C(=O)N[C@@H](CC(N)=O)C(=O)N[C@@H](Cc1ccccc1)C(N)=O)[C@@H](C)CC)C(C)C [SP2035] |  |  |  |  |  |  |  | Yes | Yes |  | Yes | Yes |  |  |  | 2510 ± 880 nM | inhibited laser-induced choroidal neovascularization | inhibited | 
5 | NINNVAbuNF (NINNVXNF; Abu non-natural residue; Artificial sequence based on the human Collagen Type IV protein) [SP2009] |  | 55% | 0% | Partial |  |  |  | No | Yes | inhibitory activity; also recorded: active in migration | No | Yes | displayed activity in inhibiting tube formation |  |  |  |  |  | Inactive
